Target: T1, MHV E protein (Murine hepatitis virus strain A59, UniProt P0C2R0)
T1 sequence (P0C2R0 1-83): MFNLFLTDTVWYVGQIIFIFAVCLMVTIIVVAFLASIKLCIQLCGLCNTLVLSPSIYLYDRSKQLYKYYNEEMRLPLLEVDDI
Assay: planar lipid bilayer current recording, dose titration
Format: biochemical

- EC50: 10.2 µM
Compound: N=C(N)NC(=O)c1nc(Cl)c(N2CCCCCC2)nc1N [HMA, Hexamethylene amiloride]

From article PMC7111787 (Virology, 2006)
